# Source: patent publication EP4782433A1, “METHOD FOR PRODUCING ARYLAMIDE DERIVATIVE” (CHUGAI SEIYAKU KABUSHIKI KAISHA, priority 2023, dated 2025)
# Key:
# [1] = in water at 25°C; cited from earlier work
# [2] = physchem; details: 25 °C, organic solvent or mixture, thermodynamic from solid
# [3] = Solubility of the additive or its sodium salt in a mixed solvent of tetrahydrofuran, acetone, tert-butyl methyl ether and water (supernatant analysed by HPLC); details: 25 °C, organic solvent or mixture, thermodynamic from solid
solubility ([2]; Solubility of additive) [mM],solubility ([2]; Solubility of sodium salt of additive) [mM],SMILES,pKa [1],solubility [3] [mM],"solubility ([3]; Solubility of additive, 25°C, tetrahydrofuran:acetone:tert-butyl methyl ether 8:10:5 by volume, water 3% by mass, stirred for 6 hours or longer) [mM]"
≥ 70,40,CC(=O)Nc1ccc(O)cc1 [Acetaminophen],9.78,–,–
–,–,Cc1cccc(O)c1 [m-Cresol],–,≥ 50,≥ 50
